In the Kinase Knowledgebase extract (Sharma et al. 2016):

What follows are compounds tested against MAPK14 (UniProt Q16539) (assay: Inhibition of MAPK14 Kinase Activity).
MAPK14, sequence (Q16539 whole entry, looked up): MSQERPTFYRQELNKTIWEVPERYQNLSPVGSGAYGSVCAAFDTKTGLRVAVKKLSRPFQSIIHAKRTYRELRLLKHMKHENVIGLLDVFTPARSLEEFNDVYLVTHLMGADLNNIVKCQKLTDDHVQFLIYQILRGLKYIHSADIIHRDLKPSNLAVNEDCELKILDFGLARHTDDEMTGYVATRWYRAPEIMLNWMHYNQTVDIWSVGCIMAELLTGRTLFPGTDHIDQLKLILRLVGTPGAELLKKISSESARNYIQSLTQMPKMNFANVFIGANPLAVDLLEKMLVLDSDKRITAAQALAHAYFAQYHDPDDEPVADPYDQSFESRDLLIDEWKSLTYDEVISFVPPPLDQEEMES

IC50 [µM]	Structure (SMILES)
< 5	Cc1ccc(-n2nc(C(C)(C)C)cc2NC(=O)Nc2ccc(N3CCN(C(=O)C4CCOC4)CC3)cc2)cc1 (centres undefined)
< 5	Cn1nc(C(C)(C)C)cc1NC(=O)Nc1cc(F)cc(OC2CCN(C(=O)c3c[nH]c4ccccc34)CC2)c1
< 5	Cn1nc(C(C)(C)C)cc1NC(=O)Nc1ccc(OC2CCN(C(=O)C3CCCC3)CC2)cc1
< 5	Cn1nc(C(C)(C)C)cc1NC(=O)Nc1cc(F)cc(OC2CCN(C(=O)c3ccc4cc[nH]c4c3)CC2)c1
< 5	Cn1nc(C(C)(C)C)cc1NC(=O)Nc1cc(F)cc(OC2CCN(C(=O)c3c(Cl)cncc3Cl)CC2)c1
< 5	COc1ccc(C(=O)N2CCC(Oc3ccc(NC(=O)Nc4cc(C(C)(C)C)nn4C)cc3)CC2)c(OC)n1
< 5	Cn1nc(C(C)(C)C)cc1NC(=O)Nc1cc(F)cc(OC2CCN(C(=O)C3(C)CC3)CC2)c1
< 5	Cn1nc(C(C)(C)C)cc1NC(=O)Nc1cc(F)cc(OC2CCN(C(=O)c3ccccc3C(F)(F)F)CC2)c1
< 5	Cn1nc(C(C)(C)C)cc1NC(=O)Nc1ccc(CN2CCN(C(=O)c3c(F)cccc3F)CC2)cc1F
0.019	Cn1nc(C(C)(C)C)cc1NC(=O)Nc1cc(F)cc(OC2CCN(C(=O)C(C)(C)C)CC2)c1
< 5	Cn1nc(C(C)(C)C)cc1NC(=O)Nc1cccc(OC2CCN(C(=O)OCc3ccccc3)CC2)c1
< 5	Cn1nc(C(C)(C)C)cc1NC(=O)Nc1ccc(OC2CCN(C(=O)C3(c4ccccc4)CC3)CC2)cc1
< 5	Cn1nc(C(C)(C)C)cc1NC(=O)Nc1cc(OC2CCN(C(=O)c3ccccc3Cl)CC2)cc(C(F)(F)F)c1
< 5	CCn1nc(C(C)(C)C)cc1NC(=O)Nc1ccc(CN2CCN(C(=O)c3c(F)cccc3F)CC2)cc1F
< 5	Cc1ccc(-n2nc(C(C)(C)C)cc2NC(=O)Nc2ccc(OCCC3CCN(C(=O)c4c(Cl)cccc4Cl)CC3)c3ccccc23)cc1
< 5	CC(C)n1nc(C(C)(C)C)cc1NC(=O)Nc1ccc(CN2CCN(C(=O)c3c(Cl)cccc3Cl)CC2)cc1F
< 5	Cc1ccc(-n2nc(C(C)(C)C)cc2NC(=O)Nc2cc(F)cc(OC3CCN(C(=O)C4CC4)CC3)c2)cc1
< 5	CC(C)(C)c1cc(NC(=O)Nc2ccc(OC3CCN(C(=O)c4c(F)cccc4F)CC3)cc2)[nH]n1
< 5	Cn1nc(C(C)(C)C)cc1NC(=O)Nc1cccc(OC2CCN(C(=O)c3ccc(Cl)s3)CC2)c1
< 5	Cn1nc(C(C)(C)C)cc1NC(=O)Nc1ccc(OC2CCN(C(=O)OC(C)(C)C)CC2)cc1
< 5	Cn1nc(C(C)(C)C)cc1NC(=O)Nc1cc(F)cc(OC2CCN(C(=O)c3cccc4[nH]ccc34)CC2)c1
< 5	Cn1nc(C(C)(C)C)cc1NC(=O)Nc1cccc(OC2CCN(C(=O)c3sccc3Cl)CC2)c1

IC50 [µM]	Structure (SMILES)
< 5	Cn1nc(C(C)(C)C)cc1NC(=O)Nc1ccc(OC2CCN(C(=O)c3c(F)cccc3F)CC2)cc1
< 5	Cc1ccc(-n2nc(C(C)(C)C)cc2NC(=O)Nc2cc(F)cc(OC3CCN(C(=O)c4sccc4C)CC3)c2)cc1
< 5	Cn1nc(C(C)(C)C)cc1NC(=O)Nc1ccc(OC2CCN(C(=O)c3ccccc3C(F)(F)F)CC2)cc1
< 5	CC(C)C(=O)N1CCC(Oc2ccc(NC(=O)Nc3cc(C(C)(C)C)nn3C)cc2)CC1
< 5	Cc1ccc(-n2nc(C(C)(C)C)cc2NC(=O)Nc2ccc(OC3CCN(C(=O)c4c(Cl)cccc4Cl)CC3)c3ccccc23)cc1
< 5	Cc1ccsc1C(=O)N1CCC(Oc2cccc(NC(=O)Nc3cc(C(C)(C)C)nn3C)c2)CC1
< 5	Cn1nc(C(C)(C)C)cc1NC(=O)Nc1ccc(CN2CCN(C(=O)c3cc(Cl)sc3Cl)CC2)cc1
< 5	COc1ccc(C(=O)N2CCC(Oc3ccc(NC(=O)Nc4cc(C(C)(C)C)nn4C)cc3)CC2)cn1
< 5	Cn1nc(C(C)(C)C)cc1NC(=O)Nc1cc(F)cc(OC2CCN(C(=O)c3ccccc3Cl)CC2)c1
< 5	Cc1ccc(-n2nc(C(C)(C)C)cc2NC(=O)Nc2ccc(N3CCN(C(=O)c4c(F)cccc4F)CC3)cc2)cc1
< 5	Cc1ccc(-n2nc(C(C)(C)C)cc2NC(=O)Nc2ccc(N3CCN(S(=O)(=O)C(C)C)CC3)cc2)cc1
< 5	Cn1nc(C(C)(C)C)cc1NC(=O)Nc1ccc(OC2CCN(C(=O)c3c(Cl)cncc3Cl)CC2)cc1
< 5	Cc1ccc(-n2nc(C(C)(C)C)cc2NC(=O)Nc2ccc(N3CCN(C(=O)C4CCCNC4)CC3)cc2)cc1 (centres undefined)
< 5	Cc1ccc(-n2nc(C(C)(C)C)cc2NC(=O)Nc2ccc(N3CCN(C(=O)C4(C)CC4)CC3)cc2)cc1
< 5	Cn1nc(C(C)(C)C)cc1NC(=O)Nc1cccc(OC2CCN(C(=O)c3cc[nH]c3)CC2)c1
< 5	Cn1nc(C(C)(C)C)cc1NC(=O)Nc1cc(F)cc(OC2CCN(C(=O)c3cc4ccccc4[nH]3)CC2)c1
< 5	Cn1nc(C(C)(C)C)cc1NC(=O)Nc1ccc(CN2CCN(C(=O)c3ccncc3)CC2)cc1
< 5	Cn1nc(C(C)(C)C)cc1NC(=O)Nc1cccc(OC2CCN(C(=O)c3c(Cl)cncc3Cl)CC2)c1
< 5	Cn1nc(C(C)(C)C)cc1NC(=O)Nc1ccc(OC2CCN(C(=O)c3cccnc3Cl)CC2)cc1
< 5	CCCC(C)(C)C(=O)N1CCN(c2ccc(NC(=O)Nc3cc(C(C)(C)C)nn3-c3ccc(C)cc3)cc2)CC1
< 5	Cn1nc(C(C)(C)C)cc1NC(=O)Nc1cc(F)cc(OC2CCN(C(=O)c3cccc4cc[nH]c34)CC2)c1
< 5	Cn1nc(C(C)(C)C)cc1NC(=O)Nc1cc(F)cc(OC2CCN(C(=O)c3ccccc3)CC2)c1

IC50 [µM]	Structure (SMILES)
< 5	Cn1nc(C(C)(C)C)cc1NC(=O)Nc1cc(F)cc(OC2CCN(C(=O)c3ccccc3F)CC2)c1
< 5	Cc1ccc(-n2nc(C(C)(C)C)cc2NC(=O)Nc2ccc(OC3CCN(C(=O)c4c(Cl)cccc4Cl)CC3)cc2)cc1
< 5	Cc1ccc(-n2nc(C(C)(C)C)cc2NC(=O)Nc2ccc(N3CCN(C(=O)C(C)C)CC3)cc2)cc1
< 5	Cn1nc(C(C)(C)C)cc1NC(=O)Nc1cc(F)cc(OC2CCN(C(=O)c3c(Cl)cccc3Cl)CC2)c1
< 5	CC(C)(C)c1cc(NC(=O)Nc2ccc(CN3CCN(C(=O)c4c(F)cccc4F)CC3)c(F)c2)n(C(C)(C)C)n1
< 5	Cn1nc(C(C)(C)C)cc1NC(=O)Nc1ccc(CN2CCN(C(=O)c3ccc(F)cc3F)CC2)cc1
< 5	CN(C)CCOc1ccc(C(=O)N2CCC(Oc3cc(F)cc(NC(=O)Nc4cc(C(C)(C)C)nn4C)c3)CC2)cc1
< 5	Cc1ccc(-n2nc(C(C)(C)C)cc2NC(=O)Nc2ccc(CN3CCN(C(=O)c4c(F)cccc4F)CC3)cc2)cc1
< 5	Cn1nc(C(C)(C)C)cc1NC(=O)Nc1cc(F)cc(OC2CCN(C(=O)c3cccc(CN4CCOCC4)c3)CC2)c1
< 5	Cn1nc(C(C)(C)C)cc1NC(=O)Nc1cccc(OC2CCN(C(=O)c3ccc(Br)s3)CC2)c1
< 5	Cn1nc(C(C)(C)C)cc1NC(=O)Nc1ccc(CN2CCN(C(=O)c3ccccc3Cl)CC2)cc1
< 5	CCn1nc(C(C)(C)C)cc1NC(=O)Nc1ccc(CN2CCN(C(=O)c3ccc(F)cc3F)CC2)cc1F
< 5	Cn1nc(C(C)(C)C)cc1NC(=O)Nc1cc(F)cc(OC2CCN(C(=O)c3ccccc3OC(F)(F)F)CC2)c1
< 5	Cn1nc(C(C)(C)C)cc1NC(=O)Nc1ccc(CN2CCN(C(=O)c3ccccc3)CC2)cc1
< 5	Cc1nn(C)c(C)c1C(=O)N1CCC(Oc2ccc(NC(=O)Nc3cn(C)nc3C(C)(C)C)cc2)CC1
< 5	Cn1nc(C(C)(C)C)cc1NC(=O)Nc1cc(F)cc(OC2CCN(C(=O)c3cc[nH]c3)CC2)c1
< 5	Cn1nc(C(C)(C)C)cc1NC(=O)Nc1cc(F)cc(OC2CCN(C(=O)C(Cl)(Cl)Cl)CC2)c1
< 5	CC(=O)N1CCN(Cc2ccc(NC(=O)Nc3cc(C(C)(C)C)nn3C)cc2)CC1
< 5	Cn1nc(C(C)(C)C)cc1NC(=O)Nc1ccc(N2CCN(C(=O)c3c(F)cccc3F)CC2)cc1
< 5	Cn1nc(C(C)(C)C)cc1NC(=O)Nc1ccc(CN2CCN(C(=O)c3ccc(Cl)cc3Cl)CC2)cc1
